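Where inhibition never reached the appropriate level, the endpoint shown equals the highest concentration tested. Otherwise, values were interpolated linearly from a five-concentration, 48-hour dose response in 96-well plates. Abbreviation: GI50, concentration required for 50% inhibition of growth. Definition used: TGI = concentration required for complete inhibition of growth.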
Experiments:
Experiment in all cases: NCI tumour cell line growth inhibition, 48 h; in the data active = GI50 below about 0.43 µM; inactive = the rest
CAKI-1 renal = tested on: CAKI-1 renal
A549 NSCLC = tested on: A549 NSCLC
KM20L2 colon = tested on: KM20L2 colon
OVCAR-4 ovarian = tested on: OVCAR-4 ovarian
CCRF-CEM leukemia = tested on: CCRF-CEM leukemia
NCI-H522 lung = tested on: NCI-H522 lung
K-562 leukemia = tested on: K-562 leukemia
HCC-2998 colon = tested on: HCC-2998 colon
A498 renal = tested on: A498 renal
LOX IMVI melanoma = tested on: LOX IMVI melanoma
NCI-H460 lung = tested on: NCI-H460 lung
OVCAR-8 ovarian = tested on: OVCAR-8 ovarian
HOP-62 NSCLC = tested on: HOP-62 NSCLC
IGROV1 ovarian = tested on: IGROV1 ovarian
SK-MEL-28 melanoma = tested on: SK-MEL-28 melanoma
HOP-92 NSCLC = tested on: HOP-92 NSCLC
UO-31 renal = tested on: UO-31 renal
RXF-631 renal = tested on: RXF-631 renal
EKVX NSCLC = tested on: EKVX NSCLC
MOLT-4 leukemia = tested on: MOLT-4 leukemia
DLD-1 colon = tested on: DLD-1 colon
DMS 114 small cell lung = tested on: DMS 114 small cell lung
RPMI-8226 leukemia = tested on: RPMI-8226 leukemia
SN12C renal = tested on: SN12C renal
TK-10 renal = tested on: TK-10 renal
M14 melanoma = tested on: M14 melanoma
M19-MEL melanoma = tested on: M19-MEL melanoma
OVCAR-5 ovarian = tested on: OVCAR-5 ovarian
SW-620 colon = tested on: SW-620 colon
786-0 renal = tested on: 786-0 renal
SK-MEL-2 melanoma = tested on: SK-MEL-2 melanoma
U251 CNS = tested on: U251 CNS
MALME-3M melanoma = tested on: MALME-3M melanoma
SK-OV-3 ovarian = tested on: SK-OV-3 ovarian
UACC-62 melanoma = tested on: UACC-62 melanoma
COLO 205 colon = tested on: COLO 205 colon
HL-60(TB) leukemia = tested on: HL-60(TB) leukemia
SF-539 CNS = tested on: SF-539 CNS
KM12 colon = tested on: KM12 colon
HCT-116 colon = tested on: HCT-116 colon
LXFL 529 NSCLC = tested on: LXFL 529 NSCLC
SK-MEL-5 melanoma = tested on: SK-MEL-5 melanoma
NCI-H23 lung = tested on: NCI-H23 lung
SF-295 CNS = tested on: SF-295 CNS
SF-268 CNS = tested on: SF-268 CNS
ACHN renal = tested on: ACHN renal
RXF 393 renal = tested on: RXF 393 renal
SNB-19 CNS = tested on: SNB-19 CNS
NCI-H226 lung = tested on: NCI-H226 lung
DU-145 prostate = tested on: DU-145 prostate
T-47D breast = tested on: T-47D breast
SR leukemia = tested on: SR leukemia
SNB-75 CNS = tested on: SNB-75 CNS
MDA-MB-231 breast = tested on: MDA-MB-231 breast
NCI/ADR-RES ovarian = tested on: NCI/ADR-RES ovarian
UACC-257 melanoma = tested on: UACC-257 melanoma
OVCAR-3 ovarian = tested on: OVCAR-3 ovarian
BT-549 breast = tested on: BT-549 breast
HCT-15 colon = tested on: HCT-15 colon
DMS 273 small cell lung = tested on: DMS 273 small cell lung
SNB-78 CNS = tested on: SNB-78 CNS
HS 578T breast = tested on: HS 578T breast
MDA-MB-435 = tested on: MDA-MB-435
MCF7 breast = tested on: MCF7 breast
PC-3 prostate = tested on: PC-3 prostate
HT29 colon = tested on: HT29 colon
MDA-N = tested on: MDA-N
XF 498 CNS = tested on: XF 498 CNS

CC(C)(c1ccccc1)c1ccc(Oc2ccc(C#N)c(C#N)c2)cc1
inactive: GI50 (CAKI-1 renal) > 100 µM | GI50 (KM20L2 colon) > 100 µM | GI50 (NCI-H522 lung) 16.9 µM | GI50 (HCC-2998 colon) > 100 µM | GI50 (A498 renal) > 100 µM | GI50 (LOX IMVI melanoma) > 100 µM | GI50 (NCI-H460 lung) > 100 µM | GI50 (OVCAR-8 ovarian) > 100 µM | GI50 (HOP-62 NSCLC) > 100 µM | GI50 (IGROV1 ovarian) > 100 µM | GI50 (SK-MEL-28 melanoma) > 100 µM | GI50 (RXF-631 renal) > 100 µM | GI50 (DLD-1 colon) > 100 µM | GI50 (SN12C renal) > 100 µM | GI50 (TK-10 renal) > 100 µM | GI50 (OVCAR-5 ovarian) > 100 µM | GI50 (786-0 renal) > 100 µM | GI50 (SK-MEL-2 melanoma) > 100 µM | GI50 (MALME-3M melanoma) > 100 µM | GI50 (SK-OV-3 ovarian) > 100 µM | GI50 (UACC-62 melanoma) > 100 µM | GI50 (COLO 205 colon) > 100 µM | GI50 (SF-539 CNS) > 100 µM | GI50 (KM12 colon) > 100 µM
84.8 µM: TGI (NCI-H522 lung)
> 100 µM: TGI (CAKI-1 renal) | TGI (A549 NSCLC) | TGI (KM20L2 colon) | TGI (OVCAR-4 ovarian) | TGI (CCRF-CEM leukemia) | TGI (K-562 leukemia) | TGI (HCC-2998 colon) | TGI (A498 renal) | TGI (LOX IMVI melanoma) | TGI (NCI-H460 lung) | TGI (OVCAR-8 ovarian) | TGI (HOP-62 NSCLC) | TGI (IGROV1 ovarian) | TGI (SK-MEL-28 melanoma) | TGI (HOP-92 NSCLC) | TGI (RXF-631 renal) | TGI (EKVX NSCLC) | TGI (MOLT-4 leukemia) | TGI (DLD-1 colon) | TGI (DMS 114 small cell lung) | TGI (RPMI-8226 leukemia) | TGI (SN12C renal) | TGI (TK-10 renal) | TGI (M14 melanoma) | TGI (M19-MEL melanoma) | TGI (OVCAR-5 ovarian) | TGI (SW-620 colon) | TGI (786-0 renal) | TGI (SK-MEL-2 melanoma) | TGI (U251 CNS) | TGI (MALME-3M melanoma) | TGI (SK-OV-3 ovarian) | TGI (UACC-62 melanoma) | TGI (COLO 205 colon) | TGI (HL-60(TB) leukemia) | TGI (SF-539 CNS) | TGI (KM12 colon) | TGI (HCT-116 colon) | TGI (LXFL 529 NSCLC) | TGI (SK-MEL-5 melanoma) | TGI (NCI-H23 lung) | TGI (SF-295 CNS) | TGI (SF-268 CNS) | TGI (ACHN renal) | TGI (RXF 393 renal) | TGI (SNB-19 CNS)
40.5 µM: TGI (UO-31 renal)

O=C1C(c2cnc3ccccc3n2)=C(O)c2ccccc21
> 100 µM: TGI (CAKI-1 renal) | TGI (A549 NSCLC) | TGI (KM20L2 colon) | TGI (OVCAR-4 ovarian) | TGI (CCRF-CEM leukemia) | TGI (NCI-H522 lung) | TGI (NCI-H226 lung) | TGI (K-562 leukemia) | TGI (HCC-2998 colon) | TGI (DU-145 prostate) | TGI (A498 renal) | TGI (T-47D breast) | TGI (SR leukemia) | TGI (NCI-H460 lung) | TGI (OVCAR-8 ovarian) | TGI (HOP-62 NSCLC) | TGI (IGROV1 ovarian) | TGI (SK-MEL-28 melanoma) | TGI (HOP-92 NSCLC) | TGI (UO-31 renal) | TGI (RXF-631 renal) | TGI (EKVX NSCLC) | TGI (MOLT-4 leukemia) | TGI (DLD-1 colon) | TGI (MDA-MB-231 breast) | TGI (DMS 114 small cell lung) | TGI (RPMI-8226 leukemia) | TGI (SN12C renal) | TGI (NCI/ADR-RES ovarian) | TGI (OVCAR-3 ovarian) | TGI (TK-10 renal) | TGI (M14 melanoma) | TGI (M19-MEL melanoma) | TGI (OVCAR-5 ovarian) | TGI (BT-549 breast) | TGI (786-0 renal) | TGI (SK-MEL-2 melanoma) | TGI (U251 CNS) | TGI (MALME-3M melanoma) | TGI (UACC-62 melanoma) | TGI (DMS 273 small cell lung) | TGI (SF-539 CNS) | TGI (SNB-78 CNS) | TGI (HCT-116 colon) | TGI (LXFL 529 NSCLC) | TGI (SK-MEL-5 melanoma) | TGI (NCI-H23 lung) | TGI (HS 578T breast) | TGI (MDA-MB-435) | TGI (MCF7 breast) | TGI (SF-268 CNS) | TGI (ACHN renal) | TGI (HT29 colon) | TGI (SNB-19 CNS) | TGI (MDA-N)
9.75 µM: TGI (HCT-15 colon)
> 88.1 µM: TGI (SF-295 CNS)
> 56.2 µM: TGI (SW-620 colon) | TGI (COLO 205 colon)
> 95.9 µM: TGI (UACC-257 melanoma)
> 46.4 µM: TGI (SK-OV-3 ovarian)
> 85.7 µM: TGI (PC-3 prostate)
79.9 µM: TGI (SNB-75 CNS)
36.1 µM: TGI (RXF 393 renal)
> 41.1 µM: TGI (KM12 colon)
> 61.5 µM: TGI (LOX IMVI melanoma)
> 88.5 µM: TGI (HL-60(TB) leukemia)

O=C(O)C(CS)NCc1c2ccccc2nc2ccccc12 (stereo not given)
88.9 µM: TGI (HOP-92 NSCLC)
37.6 µM: TGI (OVCAR-4 ovarian)
62 µM: TGI (HL-60(TB) leukemia)
88 µM: TGI (NCI-H522 lung)
64.2 µM: TGI (UO-31 renal)
98.4 µM: TGI (RXF 393 renal)
> 100 µM: TGI (CAKI-1 renal) | TGI (A549 NSCLC) | TGI (KM20L2 colon) | TGI (NCI-H226 lung) | TGI (K-562 leukemia) | TGI (HCC-2998 colon) | TGI (LOX IMVI melanoma) | TGI (NCI-H460 lung) | TGI (OVCAR-8 ovarian) | TGI (IGROV1 ovarian) | TGI (SK-MEL-28 melanoma) | TGI (SNB-75 CNS) | TGI (RXF-631 renal) | TGI (EKVX NSCLC) | TGI (MOLT-4 leukemia) | TGI (DLD-1 colon) | TGI (SN12C renal) | TGI (UACC-257 melanoma) | TGI (OVCAR-3 ovarian) | TGI (TK-10 renal) | TGI (OVCAR-5 ovarian) | TGI (SW-620 colon) | TGI (786-0 renal) | TGI (SK-MEL-2 melanoma) | TGI (U251 CNS) | TGI (MALME-3M melanoma) | TGI (SK-OV-3 ovarian) | TGI (COLO 205 colon) | TGI (HCT-15 colon) | TGI (SF-539 CNS) | TGI (KM12 colon) | TGI (HCT-116 colon) | TGI (LXFL 529 NSCLC) | TGI (NCI-H23 lung) | TGI (SF-295 CNS) | TGI (SF-268 CNS) | TGI (ACHN renal) | TGI (HT29 colon) | TGI (SNB-19 CNS)
53.7 µM: TGI (XF 498 CNS)
74.6 µM: TGI (CCRF-CEM leukemia)
91.3 µM: TGI (DMS 273 small cell lung)
89.4 µM: TGI (M19-MEL melanoma)
70.3 µM: TGI (RPMI-8226 leukemia)
97.3 µM: TGI (SR leukemia)

From PubChem BioAssay (NCI)
